From patent US20240209027A1, “PEPTIDE AND PEPTIDE-CONTAINING COMPOSITION” (PeptiAID Inc.,, priority 2021, published 2024)
Like-named read-outs stand apart in the source and are kept apart here. Starred links: 1 amine or outer side, 2 acyl side, 3 side chain; linkers in the order of their positions; H or OH if unused. Positions of bridges follow the written chain, without caps; N, C: chain ends. Non-standard residues stand in square brackets, D forms with d. Residues, ends and D or L forms follow the SMILES beside them. Chains are numbered I, II in the order given. *: point of attachment. X5 = O=C(O)CCCCCCCCCCCCC(=O)N[C@@H](CCC(=O)N[C@@H](CCCCN*)C(=O)O)C(=O)O; X4 = O=C(O)CCCCCCCCCCC(=O)N[C@@H](CCC(=O)N[C@@H](CCCCN*)C(=O)O)C(=O)O; Ala(piperidin-4-yl) = O=C([C@H](CC1CCN([*:3])CC1)N[*:1])[*:2]; Phe(4-COOH) = N[C@@H](Cc1ccc(C(=O)O)cc1)C(=O)O; X3 = O=C(O)CN1CCC(N[*:1])(C(=O)[*:2])CC1; Phe(4-F) = N[C@@H](Cc1ccc(F)cc1)C(=O)O; C12 diacid = O=C(O)CCCCCCCCCCC(=O)*; NMeF = CN[C@@H](Cc1ccccc1)C(=O)O; X1 = C[C@@H](Cc1ccc(O)cc1)C(=O)*; NMeE = CN[C@@H](CCC(=O)O)C(=O)O; dNMeE = CN[C@H](CCC(=O)O)C(=O)O; Cha = N[C@@H](CC1CCCCC1)C(=O)O; Cit = NC(=O)NCCC[C@H](N)C(=O)O; dNMeD = CN[C@H](CC(=O)O)C(=O)O; NMeNle = CCCC[C@H](NC)C(=O)O; hCys = N[C@@H](CCS)C(=O)O; X2 = O=C(C[*:1])[*:2]; Aib = CC(C)(N)C(=O)O

What was measured:
[1] = test system: SARS-CoV-2 Wuhan strain
[2] = test system: SARS-CoV-2 Delta strain
[3] = test system: SARS-CoV2 (USA WA1/2020 strain); conditions: 72 h
[4] = in vitro; conditions: African green monkey
[5] = test system: SARS-CoV-2 (JPN/TY/WK-521 strain); assay type: cell-based; parameters: key: the case where the peptide was found to have anti-SARS-CoV-2 activity when added at 50 nM was designated as “2”; the case where no activity was found upon the addition at 50 nM but the activity was found at 1 μM was designated as “1”; conditions: peptide added at 50 nM or 1 μM

Row | SMILES | IC50 [1] [nM] | IC50 [2] [nM] | IC50 [3] [nM] | CC50 at 72 h [4] [nM] | also measured
1 | CCCC[C@@H](C(=O)NC(C)(C)C(=O)N[C@@H](CC1CCCCC1)C(=O)N[C@@H](Cc1ccc(F)cc1)C(=O)N[C@H](CC(=O)O)C(N)=O)N(C)C(=O)[C@H](CCC(=O)O)N(C)C(=O)CSCC[C@H](NC(=O)[C@H](CC1CCCCC1)NC(=O)[C@@H](CCCCN)NC(=O)[C@H](CCCNC(N)=O)NC(=O)[C@H](Cc1ccc(O)cc1)NC(=O)[C@@H](C)Cc1ccc(O)cc1)C(=O)N[C@H](CCC(=O)O)C(=O)N[C@H](CCCCNC(=O)CCCCCCCCCCC(=O)O)C(N)=O [Peptide 5555_p221] (I: X1-Y[Cit][dK][Cha][hCys][dE][dK](C12 diacid)-NH2 / II: [NMeE][NMeNle][Aib][Cha][Phe(4-F)][dD]-NH2; linker I:5-II:N via X2) | 17.7 | 18.6 | – | – | –
2 | CCCC[C@H]1C(=O)NC(C)(C)C(=O)N[C@@H](CC2CCCCC2)C(=O)N[C@@H](Cc2ccc(F)cc2)C(=O)N(C)[C@H](CCC(=O)O)C(=O)N[C@@H](Cc2ccc(O)cc2)C(=O)N[C@@H](Cc2ccc(O)cc2)C(=O)N[C@@H](Cc2ccc(C(=O)O)cc2)C(=O)N[C@@H](CC2CCNCC2)C(=O)N[C@@H](CC2CCCCC2)C(=O)N[C@H](C(=O)N[C@H](CCC(=O)O)C(N)=O)CSCC(=O)N(C)[C@@H](CCC(=O)O)C(=O)N1C [Peptide 5555_p175] ({CH2CO}-[NMeE][NMeNle][Aib][Cha][Phe(4-F)][dNMeE]YY[Phe(4-COOH)][Ala(piperidin-4-yl)][Cha]C[dE]-NH2; thioether N-12) | 34.5 | – | – | – | –
3 | CCCC[C@H]1C(=O)NC(C)(C)C(=O)N[C@@H](CC2CCCCC2)C(=O)N[C@@H](Cc2ccc(F)cc2)C(=O)N(C)[C@H](CC(=O)O)C(=O)N[C@@H](Cc2ccc(O)cc2)C(=O)N[C@@H](Cc2ccc(O)cc2)C(=O)N[C@@H](Cc2ccc(C(=O)O)cc2)C(=O)N[C@@H](CC2CCNCC2)C(=O)N[C@@H](CC2CCCCC2)C(=O)N[C@H](C(=O)N[C@H](CCC(=O)O)C(N)=O)CSCC(=O)N(C)[C@@H](CCC(=O)O)C(=O)N1C [Peptide 5555_p176] ({CH2CO}-[NMeE][NMeNle][Aib][Cha][Phe(4-F)][dNMeD]YY[Phe(4-COOH)][Ala(piperidin-4-yl)][Cha]C[dE]-NH2; thioether N-12) | 13.6 | 13.7 | – | – | –
4 | CCCC[C@H]1C(=O)NC(C)(C)C(=O)N[C@@H](CC2CCCCC2)C(=O)N[C@@H](Cc2ccc(F)cc2)C(=O)NC2(CCN(CC(=O)O)CC2)C(=O)N[C@@H](Cc2ccc(O)cc2)C(=O)N[C@@H](Cc2ccc(O)cc2)C(=O)N[C@@H](Cc2ccc(C(=O)O)cc2)C(=O)N[C@@H](CC2CCNCC2)C(=O)N[C@@H](CC2CCCCC2)C(=O)N[C@H](C(=O)N[C@H](CCC(=O)O)C(N)=O)CSCC(=O)N(C)[C@@H](CCC(=O)O)C(=O)N1C [Peptide 5555_p173] ({CH2CO}-[NMeE][NMeNle][Aib][Cha][Phe(4-F)][X3]YY[Phe(4-COOH)][Ala(piperidin-4-yl)][Cha]C[dE]-NH2; thioether N-12) | 6.8 | – | – | – | –
5 | CCCC[C@H]1C(=O)NC(C)(C)C(=O)N[C@@H](CC2CCCCC2)C(=O)N[C@@H](Cc2ccc(F)cc2)C(=O)N(C)[C@@H](CCC(=O)O)C(=O)N[C@@H](Cc2ccc(O)cc2)C(=O)N[C@@H](Cc2ccc(O)cc2)C(=O)N[C@@H](Cc2ccc(C(=O)O)cc2)C(=O)N[C@H](CCCNC(=N)N)C(=O)N[C@@H](CC2CCCCC2)C(=O)N[C@H](C(N)=O)CSCC(=O)N(C)[C@@H](CCC(=O)O)C(=O)N1C [Peptide 5555_p005] ({CH2CO}-[NMeE][NMeNle][Aib][Cha][Phe(4-F)][NMeE]YY[Phe(4-COOH)][dR][Cha]C-NH2; thioether N-12) | – | – | 5 | > 100000 | –
6 | CCCC[C@H]1C(=O)NC(C)(C)C(=O)N[C@@H](CC2CCCCC2)C(=O)N[C@@H](Cc2ccc(F)cc2)C(=O)N[C@H](CC(=O)O)C(=O)N[C@@H](Cc2ccc(O)cc2)C(=O)N[C@@H](Cc2ccc(O)cc2)C(=O)N[C@@H](CCCNC(N)=O)C(=O)N[C@H](CCCCN)C(=O)N[C@@H](CC2CCCCC2)C(=O)N[C@H](C(=O)N[C@H](CCC(=O)O)C(=O)NCCCC[C@H](NC(=O)CC[C@H](NC(=O)CCCCCCCCCCCCC(=O)O)C(=O)O)C(=O)O)CSCC(=O)N(C)[C@@H](CCC(=O)O)C(=O)N1C [Peptide 5555_p235] ({CH2CO}-[NMeE][NMeNle][Aib][Cha][Phe(4-F)][dD]YY[Cit][dK][Cha]C[dE]-X5; thioether N-12) | – | 57 | – | – | –
7 | CCCC[C@H]1C(=O)NC(C)(C)C(=O)N[C@@H](CC2CCCCC2)C(=O)N[C@@H](Cc2ccc(F)cc2)C(=O)N[C@H](CC(=O)O)C(=O)N[C@@H](Cc2ccc(O)cc2)C(=O)N[C@@H](Cc2ccc(O)cc2)C(=O)N[C@@H](Cc2ccc(C(=O)O)cc2)C(=O)N[C@H](CCCNC(=N)N)C(=O)N[C@@H](CC2CCCCC2)C(=O)N[C@H](C(N)=O)CSCC(=O)N(C)[C@@H](CCC(=O)O)C(=O)N1C [Peptide 5555_p003] ({CH2CO}-[NMeE][NMeNle][Aib][Cha][Phe(4-F)][dD]YY[Phe(4-COOH)][dR][Cha]C-NH2; thioether N-12) | – | – | 4.5 | > 100000 | Anti-SARS-CoV-2 activity [5]: 2
8 | CCCC[C@H]1C(=O)NC(C)(C)C(=O)N[C@@H](CC2CCCCC2)C(=O)N[C@@H](Cc2ccc(F)cc2)C(=O)N(C)[C@@H](CCC(=O)O)C(=O)N[C@@H](Cc2ccc(O)cc2)C(=O)N[C@@H](Cc2ccc(O)cc2)C(=O)N[C@@H](Cc2ccc(C(=O)O)cc2)C(=O)N[C@H](CCCNC(=N)N)C(=O)N[C@@H](CC2CCCCC2)C(=O)N[C@H](C(=O)N[C@H](CCC(=O)O)C(N)=O)CSCC(=O)N(C)[C@@H](CCC(=O)O)C(=O)N1C [Peptide 5555_p039] ({CH2CO}-[NMeE][NMeNle][Aib][Cha][Phe(4-F)][NMeE]YY[Phe(4-COOH)][dR][Cha]C[dE]-NH2; thioether N-12) | – | – | 7.4 | > 100000 | –
9 | CN1C(=O)CSC[C@@H](C(=O)N[C@H](CCC(=O)O)C(N)=O)NC(=O)[C@H](CC2CCCCC2)NC(=O)[C@H](CCCCN)NC(=O)[C@H](CCCNC(N)=O)NC(=O)[C@H](Cc2ccc(O)cc2)NC(=O)[C@H](Cc2ccc(O)cc2)NC(=O)[C@H](CCC(=O)O)N(C)C(=O)[C@H](Cc2ccc(F)cc2)NC(=O)[C@H](CC2CCCCC2)NC(=O)[C@H](CO)NC(=O)[C@H](Cc2ccccc2)N(C)C(=O)[C@@H]1CCC(=O)O [Peptide 5555_p092] ({CH2CO}-[NMeE][NMeF]S[Cha][Phe(4-F)][NMeE]YY[Cit]K[Cha]C[dE]-NH2; thioether N-12) | – | – | 4.1 | > 100000 | Anti-SARS-CoV-2 activity ([5]; VeroE6/TMPRSS2 cells, JPN/TY/WK-521 strain, 24 hours): 2
10 | CCCC[C@H]1C(=O)NC(C)(C)C(=O)N[C@@H](CC2CCCCC2)C(=O)N[C@@H](Cc2ccc(F)cc2)C(=O)N[C@H](CC(=O)O)C(=O)N[C@@H](Cc2ccc(O)cc2)C(=O)N[C@@H](Cc2ccc(O)cc2)C(=O)N[C@@H](Cc2ccc(C(=O)O)cc2)C(=O)N[C@@H](CC2CCNCC2)C(=O)N[C@@H](CC2CCCCC2)C(=O)N[C@H](C(=O)N[C@H](CCC(=O)O)C(N)=O)CSCC(=O)N(C)[C@@H](CCC(=O)O)C(=O)N1C [Peptide 5555_p026] ({CH2CO}-[NMeE][NMeNle][Aib][Cha][Phe(4-F)][dD]YY[Phe(4-COOH)][Ala(piperidin-4-yl)][Cha]C[dE]-NH2; thioether N-12) | – | – | 8.1 | – | Anti-SARS-CoV-2 activity [5]: 2
11 | CCCC[C@H]1C(=O)NC(C)(C)C(=O)N[C@@H](CC2CCCCC2)C(=O)N[C@@H](Cc2ccc(F)cc2)C(=O)N[C@H](CC(=O)O)C(=O)N[C@@H](Cc2ccc(O)cc2)C(=O)N[C@@H](Cc2ccc(O)cc2)C(=O)N[C@@H](CCCNC(N)=O)C(=O)N[C@H](CCCCN)C(=O)N[C@@H](CC2CCCCC2)C(=O)N[C@H](C(=O)N[C@H](CCC(=O)O)C(=O)NCCCC[C@H](NC(=O)CC[C@H](NC(=O)CCCCCCCCCCC(=O)O)C(=O)O)C(=O)O)CSCC(=O)N(C)[C@@H](CCC(=O)O)C(=O)N1C [Peptide 5555_p234] ({CH2CO}-[NMeE][NMeNle][Aib][Cha][Phe(4-F)][dD]YY[Cit][dK][Cha]C[dE]-X4; thioether N-12) | – | 42 | – | – | –
12 | CN1C(=O)CSC[C@@H](C(=O)N[C@H](CCC(=O)O)C(N)=O)NC(=O)[C@H](CC2CCCCC2)NC(=O)[C@H](CCCCN)NC(=O)[C@H](Cc2ccc(C(=O)O)cc2)NC(=O)[C@H](Cc2ccc(O)cc2)NC(=O)[C@H](Cc2ccc(O)cc2)NC(=O)[C@H](CCC(=O)O)N(C)C(=O)[C@H](Cc2ccc(F)cc2)NC(=O)[C@H](CC2CCCCC2)NC(=O)[C@H](CO)NC(=O)[C@H](Cc2ccccc2)N(C)C(=O)[C@@H]1CCC(=O)O [Peptide 5555_p088] ({CH2CO}-[NMeE][NMeF]S[Cha][Phe(4-F)][NMeE]YY[Phe(4-COOH)]K[Cha]C[dE]-NH2; thioether N-12) | – | – | 11.4 | > 100000 | –
13 | CN1C(=O)CSC[C@@H](C(=O)N[C@H](CCC(=O)O)C(=O)O)NC(=O)[C@H](CC2CCCCC2)NC(=O)[C@H](CC2CCNCC2)NC(=O)[C@H](Cc2ccc(C(=O)O)cc2)NC(=O)[C@H](Cc2ccc(O)cc2)NC(=O)[C@H](Cc2ccc(O)cc2)NC(=O)[C@H](CCC(=O)O)N(C)C(=O)[C@H](Cc2ccc(F)cc2)NC(=O)[C@H](CC2CCCCC2)NC(=O)C(C)(C)NC(=O)[C@H](Cc2ccccc2)N(C)C(=O)[C@@H]1CCC(=O)O [Peptide 5555_p119] ({CH2CO}-[NMeE][NMeF][Aib][Cha][Phe(4-F)][NMeE]YY[Phe(4-COOH)][Ala(piperidin-4-yl)][Cha]C[dE]-OH; thioether N-12) | – | – | 18.2 | > 100000 | –
